Earlier results as cited in publication PMC8347148, “An Evaluation of Human Induced Pluripotent Stem Cells to Test for Cardiac Developmental Toxicity” (International Journal of Molecular Sciences, 2021).

Conditions: can be as high as; cited from earlier work

CN1CCC[C@H]1c1cccnc1 [nicotine]
nicotine concentration in fetal serum: ≤ 15.4 µM
